Literature values in patent US20160143911A1, “STABLE AND WATER SOLUBLE PHARMACEUTICAL COMPOSITIONS COMPRISING PEMETREXED” (SYNTHON B.V., priority 2013, published 2016).

Conditions: free diacid form

- Solubility in water: only sparingly soluble in water
SMILES: Nc1nc2[nH]cc(CCc3ccc(C(=O)N[C@@H](CCC(=O)O)C(=O)O)cc3)c2c(=O)[nH]1 [pemetrexed diacid, N-[4-[2-(2-amino-4,7-dihydro-4-oxo-1H-pyrrolo [2,3-d]pyrimidin-5-yl)ethyl]benzoyl]-L-glutamic acid]
